{"source": "patent US7253172B2", "about": "“Dipeptidyl peptidase inhibitors for the treatment of diabetes” (Merck & Co., Inc., priority 2001, dated 2007)", "origin": "cited, not measured here", "key": {"[1]": {"system": "cardiac allograft", "settings": "rats; doubled from day 7 to day 14"}, "[2]": {"system": "hematopoiesis", "settings": "mouse, cyclophosphamide-induced neutropenia"}, "[3]": {"molecular_target": "T1, DP-IV (Homo sapiens, UniProt P27487)", "T1 construct": "GRF is rapidly degraded in plasma to GRF[3–44]", "T1 sequence (P27487 39-766 limits assumed)": "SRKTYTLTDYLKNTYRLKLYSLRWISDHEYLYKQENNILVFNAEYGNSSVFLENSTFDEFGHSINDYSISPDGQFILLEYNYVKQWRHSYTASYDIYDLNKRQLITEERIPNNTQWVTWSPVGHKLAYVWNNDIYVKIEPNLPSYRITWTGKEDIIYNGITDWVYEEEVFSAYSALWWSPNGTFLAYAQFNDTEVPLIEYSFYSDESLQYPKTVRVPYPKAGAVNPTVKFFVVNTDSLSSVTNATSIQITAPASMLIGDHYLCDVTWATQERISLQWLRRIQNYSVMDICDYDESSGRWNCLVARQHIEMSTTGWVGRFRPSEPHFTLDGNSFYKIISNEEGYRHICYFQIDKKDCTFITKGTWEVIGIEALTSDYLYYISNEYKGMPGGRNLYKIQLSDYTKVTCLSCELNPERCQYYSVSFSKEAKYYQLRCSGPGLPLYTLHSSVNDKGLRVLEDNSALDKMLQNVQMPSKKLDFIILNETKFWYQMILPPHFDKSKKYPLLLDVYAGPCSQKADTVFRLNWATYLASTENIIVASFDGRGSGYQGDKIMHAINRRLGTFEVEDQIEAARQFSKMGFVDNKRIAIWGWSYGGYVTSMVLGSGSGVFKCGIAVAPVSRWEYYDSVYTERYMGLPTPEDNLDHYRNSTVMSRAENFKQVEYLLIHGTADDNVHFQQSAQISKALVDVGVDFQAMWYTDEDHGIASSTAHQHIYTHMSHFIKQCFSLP"}}}
{"molecule": "CC(C)N1CCC(c2ccccc2)(c2ccccc2)CC1", "note": "[Prodipine, Pro-Pro-diphenyl-phosphonate]", "values": [{"measurement": "cardiac allograft survival", "setting": "[1]", "result": 14, "unit": "day"}]}
{"molecule": "CC(C)[C@H](N)C(=O)N1CCC[C@H]1B(O)O", "note": "[Val-Boro-Pro]", "values": [{"measurement": "hematopoiesis", "setting": "[2]", "result": "stimulates hematopoiesis"}]}
{"molecule": "diprotin A", "values": [{"measurement": "degradation of GRF in plasma to GRF[3–44]", "setting": "[3]", "result": "prevented"}]}
